Reference: US12054482B2, “TLR8 agonist” (CHIA TAI TIANQING PHARMACEUTICAL GROUP CO., LTD., priority 2018, dated 2024)
Counter-ions that a name gives are not always drawn. Like-named read-outs stand apart in the source and are kept apart here.

System: human peripheral blood mononuclear cells (hPBMCs)
Experiment: Cytokine induction in human peripheral blood mononuclear cells
Assay type: cell-based
Conditions: PBMC, hPBMC, 24 hours
Text: Experimental Example 2: Experimental Procedure for Peripheral Blood Mononuclear Cell
TLR8 is a receptor for the innate immune system to sense exogenous pathogens, and can recognize exogenous viral single-stranded RNA and cause the release of a series of cytokines such as TNF-α, IL-12, IFN-γ to elicit an antiviral immune response; TLR7 is another receptor for the innate immune system to sense exogenous pathogens and, when activated, produces primarily such antiviral cytokines as IFN-α. In this experiment, a potential compound of TLR8 agonist was used to stimulate human peripheral blood mononuclear cells (hPBMCs), and the levels of TNF-α, IL-12p40, IFN-γ and IFN-α above were measured to reflect the activation of the compound on TLR8 receptor and its selectivity for TLR8/TLR7.
The experimental procedures are as follows: • 1. Fresh blood of healthy volunteers was collected, and anticoagulated with an EDTA-K2 anticoagulation tube (catalog No. BD-8516542); • 2. hPBMC cells in the middle cloud-like layer were separated after Ficoll density gradient centrifugation, and washed twice with RPMI1640 (source: Gibco, catalog No. 224400-089) containing 10% serum, and the culture medium was resuspended to 10 mL. After the cells were counted with Vi-cell cell counter, the concentration of cell suspension was adjusted to 2×10^6/mL; • 3. The compound was dissolved in DMSO to 100 mM, and diluted to 50 mM and 2 mM with DMSO, which were served as initial concentrations. Then the solutions were each diluted sequentially in a 3-fold gradient (sample at a previous concentration (5 μL)+DMSO (10 μL)) to obtain 8 gradients. The resulting solutions were respectively subjected to 500-fold dilution with the culture medium to prepare the working solutions of the compound; • 4. 100 μL of hPBMC suspension and 100 μL of compound working solution were added to each well of a U-bottom 96-well plate, with the final concentrations being 2000 nM, 666.7 nM, 222.2 nM, 74.1 nM, 24.7 nM, 8.2 nM, 2.7 nM and 0.9 nM respectively, and incubated for 24 hours. Then the supernatants were collected and cryopreserved at −20° C. for the detection of TNF-α, IFN-γ and IL-12p40 cytokines. The other group of compound samples, with the final concentrations being 50 μM, 16.7 μM, 5.6 μM, 1.9 μM, 0.6 μM, 0.2 μM, 0.1 μM and 0.02 μM respectively, were incubated for 24 hours. […] IL-12p40, TNF-α and IFN-γ in the supernatant were detected by flow cytometric bead array (CBA); IFN-α in the cell supernatant was detected by enzyme-linked immuno sorbent assay (ELISA). • 6. Data analysis: compound activity: EC50 values (half maximal effect concentration) were analyzed using a GraphPad Prism software and the dose-response curves of the compound were fitted to calculate EC50 values for the compound.

EC50 (CBA, TLR8 pathway cytokine, read-out: IFN-γ EC50): 29 nM
EC50 (CBA, TLR8 pathway cytokine, read-out: IL-12p40 EC50): 26 nM
EC50 (CBA, TLR8 pathway cytokine, read-out: TNF-α EC50): 105 nM
EC50 (ELISA, TLR7 pathway cytokine, read-out: IFN-α EC50): 2800 nM
SMILES: CCCC[C@](C)(Cc1ncn[nH]1)Nc1nc(N)nc2cnccc12 [Hydrochloride of Example 1]
